Laboratory results taken from ChEMBL document CHEMBL1132254, “Pharmacophore development for corticotropin-releasing hormone: new insights into inhibitor activity” (J Med Chem, 1999).

Target: T1, Corticotropin-releasing factor receptor 1 (Homo sapiens, UniProt P34998)
T1 sequence (P34998 whole entry): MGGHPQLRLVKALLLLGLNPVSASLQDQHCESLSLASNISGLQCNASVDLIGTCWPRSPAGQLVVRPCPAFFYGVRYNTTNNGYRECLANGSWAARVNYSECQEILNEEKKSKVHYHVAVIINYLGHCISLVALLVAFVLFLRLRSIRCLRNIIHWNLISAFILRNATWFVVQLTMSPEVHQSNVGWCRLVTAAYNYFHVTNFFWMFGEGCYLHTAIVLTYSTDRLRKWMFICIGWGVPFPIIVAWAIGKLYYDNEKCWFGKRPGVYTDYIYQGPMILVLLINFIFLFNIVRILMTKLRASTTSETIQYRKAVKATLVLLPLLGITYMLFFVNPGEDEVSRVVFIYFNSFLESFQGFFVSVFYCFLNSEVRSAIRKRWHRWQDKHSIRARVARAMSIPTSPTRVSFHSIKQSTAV
Assay: Inhibition of [125I]CRH binding to human Corticotropin releasing factor receptor 1.

Structure (SMILES) | Ki [µM]
CCCN(CC1CC1)c1nc(C)nc(Nc2c(OC)cc(OC)cc2OC)n1 | 8
CCCN(CC1CC1)c1cc(Nc2c(Cl)cc(Cl)cc2Cl)nc(C)n1 | 0.253
